Measurements taken from patent publication US7566791B2, “Substituted 3-carbonyl-1h-indol-1yl acetic acid derivatives as inhibitors of plasminogen activator inhibitor-1 (PAI-1)” (Wyeth, priority 2002, dated 2009).

Experiments:
[1] = molecular target: T1, recombinant human plasminogen activator inhibitor-1 (Homo sapiens, UniProt P05121); assay: Primary screen for the PAI-1 inhibition (residual tPA activity, chromogenic Spectrozyme-tPA); assay type: biochemical; settings: 25 uM test compound; pH 6.6 buffer, 140 nM PAI-1, 70 nM tPA
T1 construct: purchased Molecular Innovations, Royal Oak, Mich
T1 sequence (P05121 24-402): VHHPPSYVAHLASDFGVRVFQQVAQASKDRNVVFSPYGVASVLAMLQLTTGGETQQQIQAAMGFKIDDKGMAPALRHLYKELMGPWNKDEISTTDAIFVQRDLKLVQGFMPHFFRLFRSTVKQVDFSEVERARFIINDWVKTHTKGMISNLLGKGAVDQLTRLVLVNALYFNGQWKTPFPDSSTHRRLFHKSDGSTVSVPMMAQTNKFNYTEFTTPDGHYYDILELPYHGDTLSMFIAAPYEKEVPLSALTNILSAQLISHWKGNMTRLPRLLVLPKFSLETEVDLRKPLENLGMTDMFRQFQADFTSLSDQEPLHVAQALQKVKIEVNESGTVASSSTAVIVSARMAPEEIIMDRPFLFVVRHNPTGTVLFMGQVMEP
Procedure: Primary Screen for the PAI-1 Inhibition
Test compounds were dissolved in DMSO at a final concentration of 10 mM, then diluted 100× in physiologic buffer. The inhibitory assay was initiated by the addition of the test compound (1-100 μM final concentration, maximum DMSO concentration of 0.2%) in a pH 6.6 buffer containing 140 nM recombinant human plasminogen activator inhibitor-1 (Molecular Innovations, Royal Oak, Mich.). Following a 1 hour incubation at room temperature, 70 nM of recombinant human tissue plasminogen activator (tPA) was added, and the combination of the test compound, PAI-1 and tPA was incubated for an additional 30 minutes. Following the second incubation, Spectrozyme-tPA (American Diagnostica, Greenwich, Conn.), a chromogenic substrate for tPA, was added and absorbance was read at 405 nm at 0 and 60 minutes. Relative PAI-1 inhibition was equal to the residual tPA activity in the presence of the test compound and PAI-1. Control treatments included the complete inhibition of tPA by PAI-1 at the molar ratio employed (2:1), and the absence of any effect of the test compound on tPA alone.

Compound: O=C(O)Cn1cc(C(=O)c2ccc(Cl)cc2)c2cc(-c3ccc(Cl)cc3)ccc21 [Example 1, [3-(4-chlorobenzoyl)-5-(4-chlorophenyl)-1H-indol-1-yl]acetic acid]
- inhibition at 25 µM [1]: 47%
- melting point: 255 to 257 °C

Compound: Cc1ccc(-c2ccc3c(c2)c(C(=O)c2cc4ccccc4s2)cn3CC(=O)O)cc1 [Example 2, [3-(Benzo[b]thiophene-2-carbonyl)-5-(4-methylphenyl)-1H-indol-1-yl]-acetic acid]
- inhibition at 25 µM [1]: 45%

Compound: Cc1ccc(-c2ccc3c(c2)c(C(=O)c2ccc(Cl)cc2)cn3CC(=O)O)cc1 [Example 3, [3-(4-chlorobenzoyl)-5-(4-methylphenyl)-1H-indol-1-yl]-acetic acid]
- inhibition at 25 µM [1]: 46%
